Where only a bound is given, the exact number is not on record here.

For data set [1] the following is noted: low pH-values; cited from earlier work.
The subject of another data set is Total-MPT inclusive Moco. In words: MPT content in liver after last injection. The data set is classed as in vivo, mice. The procedure: (§1) FIG. 6: Restoration of the MPT-biosynthesis in vitro and in vivo. (a) In vitro restoration of MOCS1-deficient liver extracts with precursor Z. Protein raw extract of a five day old MOCS1^−/− were incubated (1 h) with the indicated amounts of purified precursor Z per mg protein. Restoration of MPT-synthesis was measured by means of nit-1 reconstitution assay. (b-d) Biochemical analysis of precursor Z treated MOCS1-deficient animals. The mice were twice weekly injected with increasing amounts of precursor Z, beginning with 2 μg after birth and up to 8 μg after weaning. Between the days 25-55 after birth the treatment was stopped. On day 0 (4 hours after the last injection), 1, 4 and 7 respectively, two mice were sacrificed. Two liver samples of each animal were removed and separately further processed. Each value in the figure was thus determined four times. […]
(§2) In homozygote MOCS1^−/−-animals, in which precursor Z was injected regularly and which appeared normal with regard to weight, appearance and behavior, the treatment was halted and the animals were sacrificed sequentially at days 0, 1, 4 and 7 after the last injection in order to determine the MPT-content and the Mo-enzyme activity in the liver (FIG. 6b-d). Due to the rapid conversion of the administered precursor Z to MPT, the highest MPT-value was measured on the day of the injection (16±1% of the wildtype; FIG. 6b). […]

A short description of data set [2]: Oxidation of precursor Z to compound Z in 2x PBS buffer, UV-VIS. The data set is classed as physicochemical. The procedure: (a) Oxidation of precursor Z to compound Z. (b) UV-VIS absorption spectrum of 22 μM precursor Z after 17 h incubation at room temperature in 2× PBS-Buffer (pH 6.9). The spectra were recorded and indicated in time intervals following dilution in Buffer. (c) […] of oxidation of precursor Z by recording the absorption at 350 nm from the spectra shown in (b).
In order to obtain larger amounts, we used a bacterial strain, which enriched precursor Z on the basis of a defect in the conversion to MPT. A further improvement in the yield could be achieved by over expression of the protein MoaA and MoaC, which catalyse the first step of Moco-synthesis. This leads to an approximately 5000-fold enrichment of precursor Z in comparison to wild type cells, with an average yield of 40 μg per L E. coli culture and a final concentration of 30-140 μg/ml. […] Under physiological and aerobic conditions at pH 6.9 (2×PBS buffer) a 22 μM solution of precursor Z was oxidized within 5 h completely to compound ZBe^9. The half time of precursor Z at pH 6.9 could be determined with 62±12 (FIG. 5c).

Data set [3] has as its system MOCS1-deficient mice. Briefly: Morphologic examination of tissues of treated knockout mice. The data set is classed as in vivo. The procedure:
FIG. 8: Morphologic comparison of kidneys (a, b) and brain sections (c,d) of wildtype- (a,c) and precursor Z-treated MOCS1-deficient mice, (b,d). Treatment was with 2-4 μg each third day. (a) Regular kidneys with normal glomerulus (arrow), characteristic developed tubuli and thin (narrow) interstices (200×). […] Proximal tubuli were extended (28+/−19%). […] The glomerulus is normal (arrow). (c,d) Corresponding coronal brain sections (Cx, Cortex; Hi, Hippocampus; Str, Striatum; Th, Thalamus; Hy, Hypothalamus) of wildtype-(c) and precursor Z-treated MOCS1^−/− mice (d).
Tissue from heart, skeletal muscle, lung, pancreas, thyroid, spleen and liver (data not shown) as well as brain (FIG. 8c-d) were examined.

Data set [4] has as its system MOCS1-deficient mice. Briefly: Cessation or delayed initiation of precursor Z treatment. The data set is classed as in vivo. An excerpt: In order to test whether the treatment with precursor Z can be halted after a certain developmental stage, we stopped the injection of precursor Z in homozygouse mutants on days 1 (n=3), 12 (n=4), 26-28 (n=3) and 64-68 (n=2) after birth. A single injection of precursor Z after day one led to death after 15-18 days. […] At the age of 26-28 days, in which the previously described critical period falls, the cessation of administration of precursor Z led to death within 4-7 days. Cessation after 64-68 days led to reduced exploration of the environment after 7 days and to death after 9-10 days. In order to successfully correct the phenotype, the administration with precursor Z had to be initiated within 5 days following birth.

The test system of a further data set is xanthine dehydrogenase. In words: Xanthine dehydrogenase activity in liver after last injection. The data set is classed as in vivo, mice. The procedure:
as §1, §2

In data set [5] the test system is MOCS1-deficient mice. Briefly: Water labyrinth learning test. The data set is classed as in vivo. The procedure:
FIG. 7: Ability to train precursor Z-treated MOCS1-deficient mice in a water labyrinth. The values represented a cross section of six wildtype- (wt, black bars) and six precursor Z treated MOCS1-deficient mice (MOCS1 ^−/−, white bars). […] C, time (of a total of 120 seconds), spent in the correct sector (without platform), which were learned in passes A and B.
Avoidance of light was tested in the light/dark box, in which the animals were placed into the light area and the time was determined until the animals sought out the darker area. […] The results were compared with wild-type controls. The mice were sequentially introduced into all four sectors and the time was measured until the animals found and climbed onto the platform (FIG. 7). […] In a second test series, the average swim time was reduced to 20-25% of the first test both in the “knockout” mice as well as with the control animals. In a third test series, the platform was removed and the time was measured that the mice spent in the “correct” sector—the sector that previously contained the platform. Both groups spent approximately 50% of the time in the correct sector.

With `Nc1nc2c(c(=O)[nH]1)N[C@@H]1[C@H](N2)O[C@@H]2COP(=O)(O)O[C@@H]2C1(O)O` [precursor Z], in data set [1], the estimated half time entry is given as “several hours”. In the data set on Total-MPT inclusive Moco (day of the injection (day 0, 4 hours after the last injection)), the MPT-value in liver is given as 16±1 % of the wildtype. The MPT-content in liver entry in the data set with Total-MPT inclusive Moco (within the following four days after last injection) is given as “less than 4 % of the wildtype value”. In addition, the “stability under physiological conditions” value in data set [2] (2x PBS-Buffer pH 6.9, room temperature) was “stable under physiological conditions”. Besides, the “half time of precursor Z” value in data set [2] (pH 6.9, 2xPBS buffer, aerobic, 22 μM, room temperature) is given as 62±12. For the same compound, in data set [2] (pH 6.9, 2xPBS buffer, physiological and aerobic conditions, 22 μM solution), the “time to complete oxidation to compound Z” value was no more than 5 h. For the same compound, in the data set with MOCS1-deficient mice [3] (2-4 μg each third day), the “enlargement of the matrix of the interstices” value is 13+/−13%, the “extension of proximal tubuli” value is 28+/−19% and the kidney stones entry is given as “numerous stones in the tubuli”. Further, in the data set with MOCS1-deficient mice [3] (beginning day 20 after birth), the kidney morphology result was “bilateral abnormal kidneys”. In addition, in the data set with MOCS1-deficient mice [3] (heart, skeletal muscle, lung, pancreas, thyroid, spleen, liver, brain), the morphology besides kidney result is on record as “no further morphologic abnormality”. Further, in the data set on MOCS1-deficient mice [4] (cessation after 64-68 days), the death after cessation lay within 9 to 10 days and the “onset of reduced exploration of the environment after cessation” value is given as 7 days. The compound further came in with a death after cessation in the data set on MOCS1-deficient mice [4] (cessation at the age of 26-28 days) of 4 to 7 days. Moreover, in the data set on MOCS1-deficient mice [4] (cessation on day 12), the “death after the last injection” value lay within 7 to 9 days and the “onset of limited exploration of the environment after the last injection” value stood at 6 days. Further, in the data set on MOCS1-deficient mice [4] (initiation of treatment after 7 or 10 days), the “improvement of the phenotype or the life expectancy” value is “no significant improvement”. Besides, the “time after birth within which administration had to be initiated to correct the phenotype” value in the data set on MOCS1-deficient mice [4] (mouse, in vivo) is no more than 5 days. The compound further returned a time of death in the data set on MOCS1-deficient mice [4] (single injection, treatment stopped on day 1) of 15 to 18 days. In addition, the “xanthin dehydrogenase activity, course” value in the data set with xanthine dehydrogenase (after day 1) was “rapidly decreased”. Besides, the “xanthin-dehydrogenase activity (% of wildtype) versus reconstituted MPT-content” value in the data set on xanthine dehydrogenase (liver) was “higher than the reconstituted MPT-content”. In addition, the “water labyrinth: finding the platform versus wild-type controls” value in the data set on MOCS1-deficient mice [5] (first series of tests) is on record as “more rapidly than the wild-type control animals”. Besides, in the data set on MOCS1-deficient mice [5] (second test series), the “water labyrinth: average swim time as % of the first test” value is listed as 20-25%. Also, the “water labyrinth: time spent in the correct sector” value in the data set on MOCS1-deficient mice [5] (third test series, platform removed) is on record as “approximately 50%”.

The record behind these values is US7504095B2, “Method for obtaining precursor Z and use thereof for the production of a means for therapy of human molybdenum cofactor deficiency” (Technische Universitaet Braunschweig, priority 2004, dated 2009).
